Data published in patent publication US20200390729A1, “OPHTHALMIC TOPICAL COMPOSITION COMPRISING DOBESILIC ACID FOR TREATING DISEASES OF THE POSTERIOR SEGMENT OF THE EYE” (LABORATORIOS SALVAT, S.A., priority 2017, published 2020).
Like-named read-outs stand apart in the source and are kept apart here.

How the values were obtained:
[1] = system: oxidized glutathione (GSSG); experiment: Antioxidant capacity: GSSG in homogenized retinas, streptozotocin diabetic retinopathy model; type: in vivo, SD male rats; settings: diabetic rats, CDO 10 mg/ml topical 10 μl/eye TID 28 days; P<0.01 group II vs. group III
Description: Diabetes was induced in SD male rats by single intraperitoneal injection of streptozotocin (STZ) at 60 mg/kg body weight in citrate buffer (pH 4.5). Seven days after STZ administration, blood glucose was measured and the level of 250 mg/dl was considered the threshold value to consider diabetes induction. Ophthalmic treatment with CDO at 10 mg/ml (topical instillation of 10 μl/eye) was initiated once hyperglycemia was confirmed and continued for 28 days three times a day (TID). Rats were randomly divided in 3 groups: I. Control (non-diabetic), II. Diabetic rats with no treatment and III. Diabetic rats with CDO at 10 mg/ml.
At day 29 CDO was instilled a single time at 10 mg/ml in the group III, rats were euthanized and retinas were collected 15 minutes post-administration.
The antioxidant capacity was evaluated by determining the concentrations of Glutathione disulfide (GSSG) or oxidized glutathione in the homogenized retinas. Tissues were collected at day 29 and homogenized in PBS pH 6-7 containing 1 mM EDTA. After centrifugation at 10000 rpm, an aliquot of the supernatant was diluted in 0.1% formic acid and analyzed by UPLC-MS/MS. […]
With regard to the mass spectrometric detection, the electrospray ionization source worked to record negative ions. […] The transition monitored for GSSG was m/z 611.2→306.2 with a cone voltage of 45 V and collision energy of 25 eV.

[2] = Ocular distribution of CDO following 28-day topical ocular repeated dose in diabetic rats; type: in vivo; settings: rat, retina, day 29, 0.25 h after single instillation, read-out: CDO μg/g tissue Retina
Description: 28-day repeated dose study in the diabetic rats was performed to assess CDO levels in retina at the steady state. CDO compositions 2 and 5 of Example 1 were administered by topical ocular instillation (10 μl/eye) TID for 28 days. At day 29 CDO was instilled a single time and retinas were collected 15 minutes post-administration.
As described in Example 2.

## O=S(=O)(O)c1cc(O)ccc1O [CDO, Calcium dobesilate monohydrate]
[1]
  retinal concentrations of GSSG: return concentrations of GSSG at the same level as the control group
[2]; 0.1 mg/eye, topical eye 28 days (3 administrations/day, 10 μl/eye) 10 mg/ml
  concentration at 0.25 h: 19.5 µg/g
[2]; 1 mg/eye, topical eye 28 days (3 administrations/day, 10 μl/eye) 100 mg/ml
  concentration at 0.25 h: 218 µg/g
